Experimental data: US20090022803A1, “Oral Formulations For Delivery of Catecholic Butanes Including Ndga Compounds” (priority 2005, published 2009)

Assay: Stability of M4N formulations at room temperature (time to crystallized precipitation)
Type: physicochemical
Experimental: A 10 mL solution of M4N at a concentration of about 10 mg/mL in 40% BP-β-CD was made as follows. About 10 mL of the 40% HP-β-CD solution were added to a glass beaker containing a stir bar. The beaker was placed on a magnetic plate and the stir bar was set to stir at medium speed. About […] of M4N were slowly added to the 40% HP-β-CD in the center of the beaker with the aid of a spatula. The M4N/40% HP-β-CD mixture was stirred for 2 hr or until all M4N was uniformly suspended without any clumps being present. The M4N/40% HP-β-CD mixture was optionally heated at 80° C. for about 30 min. (or longer if a larger volume of solution was desired, for example, 1 hr at 80° C. for 100 mL of the M4N/HP-β-CD mixture), or longer as needed to ensure complete dissolution of M4N. […] The final M4N/40% HP-β-CD solution was stored at room temperature and was kept protected from light. This process may be scaled up or down to obtain the requisite volume or concentration of M4N. Formulations containing M4N in other cyclodextrin solutions may be similarly made, such as, for example, by substituting HP-β-CD in the process described above with other cyclodextrins.
A 100 mL solution of M4N at a concentration of about 25 mg/mL in PEG 300 was made as follows. About 100 mL of PEG 300 were added to a glass beaker containing a stir bar. The beaker was placed on a magnetic plate and the stir bar was set to stir at medium speed. About 2.5 g of M4N were slowly added to the PEG 300 in the center of the beaker with the aid of a spatula to prevent M4N from sticking to the beaker wall. The M4N/PEG 300 mixture was stirred for 24 hr or until all M4N had dissolved or was uniformly suspended without any clumps being present. The M4N/PEG 300 mixture was optionally heated at about 60° C. for about 30 min. (or longer if a larger volume of solution was desired, for example, 1 hr at 60° C. for 500 mL of the M4N/PEG 300 mixture), or longer as needed to ensure complete dissolution of M4N. […] If crystals formed, the M4N/PEG 300 solution could be heated again at 60° C. for about 1 hr, with stirring, on a hot magnetic plate until all M4N was dissolved back in solution. The final M4N/PEG 300 solution was stored at room temperature and was kept protected from light. This process may be scaled up or down to obtain the requisite volume or concentration of M4N. Formulations containing M4N in other PEGs may be similarly made, such as, for example, by substituting PEG 300 in the process described above with PEG 400 or PEG 400 monolaurate.
Formulations containing M4N in other water-insoluble lipids combined with non-ionic, ionic or amphipathic surfactants or water-soluble organic solvents may be similarly made, such as, for example, by substituting sesame oil in the process described above with corn oil, olive oil, soybean oil, peppermint oil, or mineral oil and substituting Tween® 20 with Tween® 80, TPGS, lecithin, PEG 300, PEG 400, PEG 400 monolaurate, glycerol, PVP, PG, or other solubilizing agents, and combinations thereof. Stability in reference to the clear liquid solutions herein refers to the time it takes to form crystallized precipitation in solution. A stable solution is one that is clear and free of particulates for an extended period of time.

## COc1ccc(C[C@@H](C)[C@@H](C)Cc2ccc(OC)c(OC)c2)cc1OC [Formulation M4N, meso-1,4-bis(3,4-dimethoxyphenyl)-2,3-dimethylbutane]
M4N 1 mg/mL suspension in 50% HP-β-CD, 0.5% CMC
  Stability at Room Temperature: >7 days
M4N 2.4 mg/mL, Sesame Oil, Tween ® 20 and Glycerol, 10% Oil emulsion in 90% saline
  Stability Time at Room Temperature: <1 days
M4N 2.9 mg/mL, Sesame Oil and Tween ® 20, 10% Oil emulsion in 90% saline
  Stability Time at Room Temperature: <3 days
M4N 3.13 mg/mL in 5% HP-β-CD, 12.5% PEG 300 (v/v)
  Stability at Room Temperature: <7 days
M4N 4.17 mg/mL in 6.7% HP-β-CD, 16.7% PEG 300 (v/v)
  Stability at Room Temperature: >7 days
M4N 6.25 mg/mL in 10% HP-β-CD, 25% PEG 300 (v/v)
  Stability at Room Temperature: >7 days
M4N 10 mg/mL in 30% HP-β-CD
  Stability at Room Temperature: <3 days
M4N 10 mg/mL in 32% HP-β-CD, 20% PEG 400 (v/v)
  Stability at Room Temperature: >7 days
M4N 10 mg/mL in 50% HP-β-CD
  Stability at Room Temperature: >7 days
M4N 10 mg/mL in 50% HP-β-CD in saline
  Stability at Room Temperature: >7 days
M4N 10 mg/mL in Peppermint Oil
  Stability Time at Room Temperature: >3 days
M4N 10 mg/mL in Tween® 20
  stable at room temperature: more than 7 days
M4N 10 mg/mL in Tween® 80
  stable at room temperature: more than 3 days
M4N 12.5 mg/mL in 12.5% HP-β-CD, 50% PEG 300 (v/v)
  Stability at Room Temperature: <1 days
M4N 12.5 mg/mL in 12.5% HP-β-CD, 50% PEG 400 (v/v)
  Stability at Room Temperature: <1 days
M4N 12.5 mg/mL in 15% HP-β-CD, 50% PEG 300 (v/v)
  Stability at Room Temperature: <7 days
M4N 12.5 mg/mL in 15% HP-β-CD, 50% PEG 400 (v/v)
  Stability at Room Temperature: <3 days
M4N 12.5 mg/mL in 20% HP-β-CD, 50% PEG 300 (v/v)
  Stability at Room Temperature: >7 days
M4N 12.5 mg/mL in 20% HP-β-CD, 50% PEG 400 (v/v)
  Stability at Room Temperature: <7 days
M4N 12.5 mg/mL in 30% HP-β-CD, 25% PEG 400 (v/v)
  Stability at Room Temperature: >7 days
M4N 12.9 mg/mL in 23% HP-β-CD, 43% PEG 400 (v/v)
  Stability at Room Temperature: >7 days
M4N 12.9 mg/mL in 23% HP-β-CD, 43 PEG 300 (v/v)
  Stability at Room Temperature: >7 days
M4N 13.3 mg/mL in 27% HP-β-CD, 33% PEG 300 (v/v)
  Stability at Room Temperature: >7 days
M4N 13.3 mg/mL in 27% HP-β-CD, 33% PEG 400 (v/v)
  Stability at Room Temperature: >7 days
M4N 20 mg/mL in Tween® 20
  stable at room temperature: more than 7 days
M4N 20 mg/mL suspension in 50% HP-β-CD, 0.5% CMC
  Stability at Room Temperature: >7 days
M4N 24.3 mg/mL in 75% Sesame Oil, 9% Tween ® 20, 16% Glycerol
  Stability Time at Room Temperature: <7 days
M4N 29 mg/mL in 89% Sesame Oil, 11% Tween ® 20
  Stability Time at Room Temperature: >7 days
M4N 40 mg/mL in 50% Peppermint Oil, 50% Tween ® 20
  Stability Time at Room Temperature: >3 days
M4N 40 mg/mL in Tween® 20
  stable at room temperature: less than 3 days
M4N 50 mg/mL in Camillia Oil
  Stability Time at Room Temperature: >7 days
M4N 50 mg/mL in Mineral Oil
  Stability Time at Room Temperature: <1 days
M4N 50 mg/mL in Tween® 80
  stable at room temperature: less than 1 day
M4N 60 mg/mL in 50% Peppermint Oil, 50% Tween ® 20
  Stability Time at Room Temperature: >3 days
M4N 60 mg/mL in Peppermint Oil
  Stability Time at Room Temperature: <3 days
M4N 60 mg/mL suspension in 50% HP-β-CD, 0.5% CMC
  Stability at Room Temperature: >7 days
M4N 80 mg/mL in Tween® 20
  stable at room temperature: less than 3 days
M4N 100 mg/mL in Peppermint Oil
  Stability Time at Room Temperature: <1 days
M4N 125 mg/mL in Peppermint Oil
  Stability Time at Room Temperature: <1 days
M4N in glycerol monooleate (Glymo), heated to 60° C., cooled
  stability of the suspension at room temperature: remained stable for two weeks
M4N up to 60 mg/mL in 50% Tween® 20 and 50% PEG 400
  stable at room temperature: more than 3 days
PEG 400 mono-laurate 100%, M4N 20 mg/mL
  Stability Time at Room Temperature: >3 days
PEG 400 mono-laurate 100%, M4N 50 mg/mL
  Stability Time at Room Temperature: <1 days
Propylene Glycol 100% (w/v), M4N 1 mg/mL
  Stability Time at Room Temperature: <1 days
Propylene Glycol 100% (w/v), M4N 10 mg/mL
  Stability Time at Room Temperature: <1 days
Propylene Glycol 100% (w/v), M4N 20 mg/mL
  Stability Time at Room Temperature: <1 days
TPGS 20% (w/v), M4N 60 mg/ml, suspension
  Stability at Room Temperature: >3 days
TPGS 20% (w/v), M4N 100 mg/ml, suspension
  Stability at Room Temperature: >3 days
